We go through 26 molecules from patent US9181237B2, “Substituted berbines and their synthesis” (MALLINCKRODT LLC, priority 2013, dated 2015).

Assay [1] concerns murine melanoma cell line, B16. In words: B16 cancer cell screening assay: inhibition of B16 proliferation. The format is cell-based. The note with it: B16 cells exposed to several concentrations; for IC50: read-out: B16 Profile IC50. Here is the method: (§1) The murine melanoma cell line, B16, was used to screen the activity of compounds comprising Formula (V). B16 cells were grown under standard conditions and exposed to several concentrations of each of the tested compounds.

Assay [2] relates to murine melanoma cell line, B16. In words: B16 cancer cell screening assay: inhibition of lactate dehydrogenase (LDH) release. The format is cell-based. Particulars: B16 cells exposed to several concentrations. As to the method:
as §1

Setting [3] is: Mus musculus, B16, inhibition of B16 proliferation.
[4] abbreviates: Mus musculus, B16, inhibition of lactate dehydrogenase (LDH) release.
[5] abbreviates: inhibition of lactate dehydrogenase (LDH) release.
The mark [6] stands for this setting: inhibition of B16 proliferation.

As for `CC[C@@H]1c2c(ccc(OC)c2O)C[C@H]2c3ccc(OC)cc3CCN12` [M-R-0001], the values for the IC50 in assay [1] (setting [3]) and in assay [2] (setting [4]) were above 600 µM and 175 µM, respectively.
The corresponding values for `COc1ccc2c(c1)CCN1[C@H]2Cc2cc(O)c(OC)cc2[C@H]1C1CCC1` [M-R-0002] are 200 µM and 200 µM.
The like results for `COc1ccc2c(c1)CCN1[C@H]2Cc2ccc(OC)c(O)c2[C@H]1C1CCC1` [M-R-0003] were, in that order, above 600 µM and 150 µM.
As for `COc1ccc2c(c1)CCN1Cc3cc(OC)c(O)cc3C[C@@H]21` [M-R-0004], the IC50 in assay [1] (setting [3]) and in assay [2] (setting [4]) was above 600 µM throughout.
`COc1ccc2c(c1)CCN1[C@H](c3ccccc3)c3cc(OC)c(O)cc3C[C@@H]21` [M-R-0005]: the IC50 in assay [1] (setting [3]) was 35 µM; in assay [2] (setting [4]), 30 µM.
For `COc1ccc2c(c1)CCN1[C@@H](c3ccccc3)c3cc(OC)c(O)cc3C[C@@H]21` [M-R-0006], the IC50 in assay [1] (setting [3]) and in assay [2] (setting [4]) was 35 µM each time.
`CCC[C@@H]1c2cc(OC)c(O)cc2C[C@H]2c3ccc(OC)cc3CCN12` [M-R-0007]: the IC50 in assay [1] (setting [3]) is above 400 µM. Also, the “B16 LDH IC50” value in assay [2] (setting [5]) was “Inactive”.
For `COc1ccc2c(c1)CCN1Cc3c(ccc(OC)c3O)C[C@@H]21` [M-R-0008], the half-maximal inhibitory concentration (IC50) in assay [1] (setting [3]) was 38 µM; in assay [2] (setting [4]), above 320 µM.
As to `COc1ccc2c(c1)CCN1Cc3cc(OC)c(O)cc3C[C@H]21` [M-R-0009], the “B16 Profile IC50” value in assay [1] (setting [6]) is recorded as “Inactive”. Also, in assay [2] (setting [5]), the “B16 LDH IC50” value is given as “Inactive”.
Take `COc1ccc2c(c1)CCN1Cc3c(ccc(OC)c3O)C[C@H]21` [M-R-0010]: in assay [1] (setting [3]), the IC50 came out at 300 µM. In assay [2] (setting [5]), the “B16 LDH IC50” value is recorded as “Inactive”.
Take `COc1cc2c(cc1OC)CN1CCc3cc4c(cc3[C@@H]1C2)OCO4` [M-R-0011]: the values for the concentration for half-maximal inhibition (IC50) in assay [1] (setting [3]) and in assay [2] (setting [4]) were 120 µM and 70 µM, respectively.
The like results for `COc1ccc2c(c1O)[C@H](Cc1ccccc1)N1CCc3cc4c(cc3[C@@H]1C2)OCO4` [M-R-0012] were, in that order, above 600 µM and above 700 µM.
For the molecule `COc1cc2c(cc1O)[C@@H](Cc1ccccc1)N1CCc3cc4c(cc3[C@@H]1C2)OCO4` [M-R-0013], the values for the IC50 in assay [1] (setting [6]) and in assay [2] (setting [4]) were 75 µM and 700 µM, respectively.
Take `COc1ccc2c(c1)CCN1[C@@H](c3ccccc3)c3cc(O)c(O)cc3C[C@@H]21` [M-R-0014]: the half-inhibitory concentration (IC50) was determined as 10 µM in assay [1] (setting [3]) and 70 µM in assay [2] (setting [4]).
The like results for `COc1ccc2c(c1)CCN1[C@H](c3ccccc3)c3cc(O)c(O)cc3C[C@@H]21` [M-R-0015] were, in that order, 25 µM and 130 µM.
The corresponding values for `COc1ccc2c(c1)CCN1[C@H](Cc3ccccc3)c3c(ccc(OC)c3O)C[C@@H]21` [M-R-0016] are 75 µM and 700 µM.
The like results for `COc1ccc2c(c1)CCN1[C@H](Cc3ccccc3)c3cc(OC)c(O)cc3C[C@@H]21` [M-R-0017] were, in that order, 55 µM and 60 µM.
`COc1cc2c(cc1O)C[C@H]1c3cc4c(cc3CCN1[C@H]2c1ccccc1)OCO4` [M-R-0018]: the IC50 in assay [1] (setting [3]) amounted to 35 µM; in assay [2] (setting [4]), 30 µM.
The corresponding values for `COc1cc2c(cc1O)C[C@H]1c3cc4c(cc3CCN1[C@@H]2c1ccccc1)OCO4` [M-R-0019] are 45 µM and 50 µM.
The like results for `COc1ccc2c(c1)CCN1[C@@H](c3ccccc3Br)c3c(O)c(OC)cc(Br)c3C[C@@H]21` [M-R-0020] were, in that order, 18 µM and 30 µM.
As for `COc1ccc2c(c1)CCN1[C@H](Cc3ccccc3)c3c(O)c(OC)cc(Br)c3C[C@@H]21` [M-R-0021], the IC50 in assay [1] (setting [3]) is 65 µM; in assay [2] (setting [4]), around 350 µM.
Consider `COc1ccc2c(c1)CCN1[C@@H](c3ccccc3N)c3c(O)c(OC)cc(Br)c3C[C@@H]21` [M-R-0022], for which the IC50 is 25 µM in assay [1] (setting [3]) and 30 µM in assay [2] (setting [4]).
The corresponding values for `COc1ccc2c(c1)CCN1[C@H](c3ccccc3)c3c(O)c(OC)cc(Br)c3C[C@@H]21` [M-R-0023] are 27 µM and 40 µM.
The like results for `COc1ccc2c(c1)CCN1[C@H](c3ccccc3)c3c(ccc(OC)c3O)C[C@@H]21` [M-R-0024] were, in that order, 60 µM and 70 µM.
Turning to `COc1cc2c(cc1O)[C@@H](Cc1ccccc1)N1CCc3cc4c(cc3[C@@H]1C2)OCO4` [M-R-0025], the 50% inhibitory concentration (IC50) is above 160 µM in assay [1] (setting [6]) and around 350 µM in assay [2] (setting [5]).
On to `COc1cc2c(cc1O)[C@H](Cc1ccccc1)N1CCc3cc4c(cc3[C@@H]1C2)OCO4` [M-R-0026], for which the results for the IC50 in assay [1] (setting [3]) and in assay [2] (setting [4]) were 55 µM and 60 µM, respectively.

For orientation: IC50 means the concentration that gives 50% inhibition.
